Source: US20100130457A1, “Phenothiazine Derivatives for Treatment of Asthma” (Immune Control, Inc., priority 2008, published 2010)
“Also recorded” adds a separate entry of the source. Read-outs that look alike come from different tables or passages of the source.

Columns and labels:
RPMI 8226 = test: Inhibition of proliferation of RPMI 8226 cells; assay type: cell-based, human; settings: RPMI cells in vitro
Excerpt: The next set of experiments was designed to assess compounds that have low levels of brain penetration for the ability of the test compounds to inhibit cellular proliferation. An exemplary in vitro assay is to screen for the ability of the test compounds to inhibit proliferation of the B-cell neoplastic cell line RPMI 8226 (a plasmacytoma derived from a multiple myeloma patient (Matsuoka, et al., 1967, Proc. Soc. Exp. Biol. Med. 125: 1246-1250). However other cell line can be used such as, U266 (established from an IgE-secreting myeloma patient (Nilsson, et al., 1970, Clin. Exp. Immunol., 7: 477-489) and ARH77 (an EBV transformed plasma cell leukemia (Burk, et al., 1978, Cancer Res. 38: 2508-2513).
FIG. 1 is a graph depicting the effects on the test compounds on RPMI cell viability.

MPR1-MDCK = MPR1-MDCK permeability, potential to cross the blood-brain barrier; assay type: in vitro ADME; settings: for % Recovery A-B / Papp A-B: A-B direction; for % Recovery B-A / Papp B-A: B-A direction; for Efflux: efflux ratio; for Brain Penetration Classification: from A-B Papp and efflux ratio
Excerpt: (§1) A criterion for selecting an agent for proceeding to clinical trials is whether the compound crosses the blood-brain barrier. […] Fluphenazine (ICI-01175) is used as a control compound that has the potential to cross the blood-brain barrier. Table 1 summarizes the results of the test compounds for their potential to cross the blood-brain barrier.

human small airway = test: Human precision-cut lung slices (PCLS), small airway contraction
Procedure: Human precision-cut lung slices (PCLS) permit evaluation of pharmacological responses of novel drug candidates applied directly to their target tissue.
Human precision-cut lung slices (PCLS, 250 μm thick) containing a small airway were contracted to carbachol, histamine and passively sensitization to induce airway closure±pre-incubation with ICI-735 (10 μM; 2 hours); FIG. 13. For example, human lung slices containing a small airway were incubated overnight with either negative control IgG (4 μg/mL) or positive control IgE (4 μg/mL). The slices were tested as follows: 1) IgG+anti-IgE; 2) IgE+anti-IgE; 3) IgE+Dexamethasone (1 μM)+anti-IgE; and 4) IgE+ICI-735 (10 μM) +anti-IgE. Dexamethasone and ICI-735 were pre-incubated 2 hours prior to anti-IgE; anti-IgE is used to crosslink antibodies and induce mast cell degranulation, which is believed to release histamine and cause airway contract. […]
Human lung tissue contains multiple cell types, including mast cells, that localize in the region of airway smooth muscle, and that increase in number in individuals with asthma. Cross-linking of Fcε;R1 receptors on surfaces of mast cells leads to release of granules that contain smooth muscle contractile agonists, including histamine and leukotrienes.
To test C-027 as a blocker of histamine-induced bronchoconstriction, lung slices were incubated for 2 hours with C-027, and small airway contraction was evaluated after addition of increasing concentrations of histamine.

[1] = MPR1-MDCK permeability, potential to cross the blood-brain barrier; assay type: in vitro ADME; settings: dog, MDCK
Excerpt: as §1

| Structure (SMILES) | % Recovery A-B (MPR1-MDCK) | Papp A-B (MPR1-MDCK) | % Recovery B-A (MPR1-MDCK) | Papp B-A (MPR1-MDCK) | Efflux (MPR1-MDCK) | Brain Penetration Classification (MPR1-MDCK) | further results |
| --- | --- | --- | --- | --- | --- | --- | --- |
| CN(C)S(=O)(=O)c1ccc2c(c1)N(CCCN1CCN(CCN)CC1)c1ccccc1S2 [ICI-00715] | 85% | 0.08 ×10⁻⁶ cm/s | 77% | 12.3 ×10⁻⁶ cm/s | 154 | Low (A-B Papp > 3.0 and Efflux Ratio > 10: Low) | ability to inhibit proliferation of RPMI cells (RPMI 8226): able to inhibit |
| FC(F)(F)c1ccc2c(c1)N(CCCC1CCNCC1)c1ccccc1S2 [ICI-00824] | 11% | 1.77 ×10⁻⁶ cm/s | 21% | 13.8 ×10⁻⁶ cm/s | 7.8 | Low (A-B Papp > 3.0 and Efflux Ratio > 10: Low) | – |
| CNCC(=O)NCCN1CCC(CCCN2c3ccccc3Sc3ccc(C(F)(F)F)cc32)CC1 [ICI-00849] | 11% | <1 ×10⁻⁶ cm/s | 26% | 5.1 ×10⁻⁶ cm/s | >5.1 | Low (A-B Papp > 3.0 and Efflux Ratio > 10: Low) | ability to inhibit proliferation of RPMI cells (RPMI 8226): able to inhibit |
| C[C@@H]1C[C@H]2[C@@H]3CCC4=CC(=O)C=C[C@]4(C)[C@@]3(F)[C@@H](O)C[C@]2(C)[C@@]1(O)C(=O)CO [Dexamethasone, reference compound] | – | – | – | – | – | – | airway contraction to IgE/anti-IgE (passive sensitization, mast cell degranulation) (human small airway; ICI-735 10 μM, dexamethasone 1 μM, pre-incubated 2 hours): no effect |
| CNCC(=O)NCCCN1CCN(CCCN2c3ccccc3Sc3ccc(C(F)(F)F)cc32)CC1 [ICI-00823] | 57% | <0.24 ×10⁻⁶ cm/s | 46% | 19.4 ×10⁻⁶ cm/s | >80 | Low (A-B Papp > 3.0 and Efflux Ratio > 10: Low) | – |
| C[N+](C)(C)CCOC(N)=O [Carbachol, reference compound] | – | – | – | – | – | – | bronchoconstriction (human small airway; 10^−8 to 10^−5 M, dose-dependent): up to 70% |
| CNCC(=O)NCCN1CCN(CCCN2c3ccccc3Sc3ccc(C(F)(F)F)cc32)CC1 [ICI-00758] | 59% | 0.21 ×10⁻⁶ cm/s | 41% | 24.9 ×10⁻⁶ cm/s | 116 | Low (A-B Papp > 3.0 and Efflux Ratio > 10: Low) | – |
| NCC(=O)NCCN1CCC(CCCN2c3ccccc3Sc3ccc(C(F)(F)F)cc32)CC1 [ICI-00848] | 22% | 0.24 ×10⁻⁶ cm/s | 21% | 15.5 ×10⁻⁶ cm/s | 64 | Low (A-B Papp > 3.0 and Efflux Ratio > 10: Low) | ability to inhibit proliferation of RPMI cells (RPMI 8226): able to inhibit |
| CN(C)CCN1CCN(CCCN2c3ccccc3Sc3ccc(C(F)(F)F)cc32)CC1 [ICI-00738] | 15% | 1.06 ×10⁻⁶ cm/s | 40% | 3.33 ×10⁻⁶ cm/s | 3.1 | Low (A-B Papp > 3.0 and Efflux Ratio > 10: Low) | – |
| NCCN1CCC(CCCN2c3ccccc3Sc3ccc(C(F)(F)F)cc32)CC1 [ICI-00846] | 3% | <0.36 ×10⁻⁶ cm/s | 1% | <0.49 ×10⁻⁶ cm/s | – | Low (A-B Papp > 3.0 and Efflux Ratio > 10: Low) | – |
| NCC(N)C(=O)NCCN1CCN(CCCN2c3ccccc3Sc3ccc(C(F)(F)F)cc32)CC1 (stereo not drawn) [ICI-761] | – | – | – | – | – | – | ability to inhibit proliferation of RPMI cells (RPMI 8226): able to inhibit |
| NCCCN1CCN(CCCN2c3ccccc3Sc3ccc(C(F)(F)F)cc32)CC1 [ICI-00760] | 46% | <0.25 ×10⁻⁶ cm/s | 40% | 18.8 ×10⁻⁶ cm/s | >75 | Low (A-B Papp > 3.0 and Efflux Ratio > 10: Low) | – |
| OCCN1CCN(CCCN2c3ccccc3Sc3ccc(C(F)(F)F)cc32)CC1 [ICI-01175, Fluphenazine, reference compound] | – | – | – | – | – | High (A-B Papp > 3.0 and Efflux Ratio < 3.0: High) | Papp A→B ([1]; A-B direction): 8.7 ×10⁻⁶ cm/s; recovery ([1]; A-B direction, read-out: % Recovery A-B): 24%; Papp B→A ([1]; B-A direction): 9.63 ×10⁻⁶ cm/s; recovery ([1]; B-A direction, read-out: % Recovery B-A): 43%; efflux ratio ([1]; efflux ratio): 1.1 |
| CC(C)NCC(O)c1ccc(O)c(O)c1 (stereo not drawn) [isoproterenol, reference compound] | – | – | – | – | – | – | relaxation of maximally contracted airway smooth muscle (human small airway; in the presence of 30 μM CCh, isoproterenol 10 μM): comparable degree of relaxation |
| FC(F)(F)c1ccc2c(c1)N(CCCN1CCNCC1)c1ccccc1S2 [ICI-00685] | 17% | 0.66 ×10⁻⁶ cm/s | 15% | 4.47 ×10⁻⁶ cm/s | 6.8 | Low (A-B Papp > 3.0 and Efflux Ratio > 10: Low) | – |
| NCC(=O)NCCCN1CCN(CCCN2c3ccccc3Sc3ccc(C(F)(F)F)cc32)CC1 [ICI-00822] | 61% | 0.13 ×10⁻⁶ cm/s | 22% | 15.7 ×10⁻⁶ cm/s | 119 | Low (A-B Papp > 3.0 and Efflux Ratio > 10: Low) | – |
| NCCCN1CCC(CCCN2c3ccccc3Sc3ccc(C(F)(F)F)cc32)CC1 [ICI-00847] | 9% | 0.56 ×10⁻⁶ cm/s | 31% | 9.56 ×10⁻⁶ cm/s | 17 | Low (A-B Papp > 3.0 and Efflux Ratio > 10: Low) | ability to inhibit proliferation of RPMI cells (RPMI 8226; listed as ICI-847): able to inhibit; also recorded: active |

Second part, led by results:

| % Recovery A-B (MPR1-MDCK) | Papp A-B (MPR1-MDCK) | % Recovery B-A (MPR1-MDCK) | Papp B-A (MPR1-MDCK) | Efflux (MPR1-MDCK) | Structure (SMILES) | Brain Penetration Classification (MPR1-MDCK) | further results |
| --- | --- | --- | --- | --- | --- | --- | --- |
| 55% | 0.32 ×10⁻⁶ cm/s | 47% | 26.4 ×10⁻⁶ cm/s | 82 | NCC(=O)NCCCN1CCC(CCCN2c3ccccc3Sc3ccc(C(F)(F)F)cc32)CC1 [ICI-01260] | Low (A-B Papp > 3.0 and Efflux Ratio > 10: Low) | ability to inhibit proliferation of RPMI cells (RPMI 8226; listed as ICI-1260): able to inhibit; also recorded: active |
| 29% | <0.29 ×10⁻⁶ cm/s | 39% | 12.5 ×10⁻⁶ cm/s | >43 | CNCC(=O)NCCCN1CCC(CCCN2c3ccccc3Sc3ccc(C(F)(F)F)cc32)CC1 [ICI-01259] | Low (A-B Papp > 3.0 and Efflux Ratio > 10: Low) | ability to inhibit proliferation of RPMI cells (RPMI 8226): able to inhibit |
| 11% | 0.94 ×10⁻⁶ cm/s | 9% | 4.94 ×10⁻⁶ cm/s | 5.3 | CC(=O)NCCN1CCC(CCCN2c3ccccc3Sc3ccc(C(F)(F)F)cc32)CC1 [ICI-00850] | Low (A-B Papp > 3.0 and Efflux Ratio > 10: Low) | – |
| 15% | 0.75 ×10⁻⁶ cm/s | 29% | 8.6 ×10⁻⁶ cm/s | 11 | FC(F)(F)c1ccc2c(c1)N(CCCCN1CCNCC1)c1ccccc1S2 [ICI-00890] | Low (A-B Papp > 3.0 and Efflux Ratio > 10: Low) | – |
| 3% | <0.36 ×10⁻⁶ cm/s | 26% | 0.64 ×10⁻⁶ cm/s | >1.8 | CN(C)CCCN1CCC(CCCN2c3ccccc3Sc3ccc(C(F)(F)F)cc32)CC1 [ICI-01505] | Low (A-B Papp > 3.0 and Efflux Ratio > 10: Low) | – |
| 56% | 0.22 ×10⁻⁶ cm/s | 56% | 30 ×10⁻⁶ cm/s | 136 | N#Cc1ccc2c(c1)N(CCCN1CCN(CCN)CC1)c1ccccc1S2 [ICI-00894] | Low (A-B Papp > 3.0 and Efflux Ratio > 10: Low) | – |
